The record followed here is ChEMBL document CHEMBL5052842, “Pharmaceutical compounds and their use as inhibitors of ubiquitin specific protease 19 (usp19)” (2020).

The target in the assay is T1, Ubiquitin carboxyl-terminal hydrolase 19 (Homo sapiens, UniProt O94966).
T1 sequence (O94966 whole entry): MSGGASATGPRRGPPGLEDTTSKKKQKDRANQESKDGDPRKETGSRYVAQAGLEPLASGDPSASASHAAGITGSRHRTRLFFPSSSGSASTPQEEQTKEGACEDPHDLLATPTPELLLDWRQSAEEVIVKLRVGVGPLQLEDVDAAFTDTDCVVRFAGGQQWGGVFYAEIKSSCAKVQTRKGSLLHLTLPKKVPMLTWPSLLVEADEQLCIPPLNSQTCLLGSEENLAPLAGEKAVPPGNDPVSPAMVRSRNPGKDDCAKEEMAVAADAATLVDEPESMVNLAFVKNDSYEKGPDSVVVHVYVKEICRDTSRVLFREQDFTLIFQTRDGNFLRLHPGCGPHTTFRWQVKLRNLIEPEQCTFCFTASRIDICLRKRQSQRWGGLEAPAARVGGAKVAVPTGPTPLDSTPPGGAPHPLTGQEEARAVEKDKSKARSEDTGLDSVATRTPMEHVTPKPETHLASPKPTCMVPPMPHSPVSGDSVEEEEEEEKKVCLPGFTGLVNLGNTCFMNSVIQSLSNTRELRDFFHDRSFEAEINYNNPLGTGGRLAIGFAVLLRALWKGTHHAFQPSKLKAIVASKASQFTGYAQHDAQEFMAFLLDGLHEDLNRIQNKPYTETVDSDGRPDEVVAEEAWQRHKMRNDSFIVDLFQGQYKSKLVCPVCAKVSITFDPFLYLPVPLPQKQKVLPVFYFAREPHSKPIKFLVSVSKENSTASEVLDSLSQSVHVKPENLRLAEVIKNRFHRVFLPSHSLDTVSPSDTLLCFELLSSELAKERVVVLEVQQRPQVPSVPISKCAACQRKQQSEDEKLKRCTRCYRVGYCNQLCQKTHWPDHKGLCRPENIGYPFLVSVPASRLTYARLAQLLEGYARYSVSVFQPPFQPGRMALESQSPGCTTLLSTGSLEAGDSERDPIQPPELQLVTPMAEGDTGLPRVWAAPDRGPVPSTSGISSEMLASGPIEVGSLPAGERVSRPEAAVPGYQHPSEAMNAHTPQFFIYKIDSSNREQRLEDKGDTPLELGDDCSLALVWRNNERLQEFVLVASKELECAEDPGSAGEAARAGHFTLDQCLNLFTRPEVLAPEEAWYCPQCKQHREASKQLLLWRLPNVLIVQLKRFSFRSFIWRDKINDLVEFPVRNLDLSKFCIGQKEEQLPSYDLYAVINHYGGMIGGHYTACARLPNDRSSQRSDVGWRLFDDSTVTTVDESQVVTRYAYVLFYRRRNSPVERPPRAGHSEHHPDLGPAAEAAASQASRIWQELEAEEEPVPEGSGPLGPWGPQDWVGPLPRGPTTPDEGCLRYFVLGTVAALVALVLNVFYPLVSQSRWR
In words: Inhibition of C-terminal His6-tagged recombinant human USP19 using iso-peptide ubiquitin-Lys-TAMRA as substrate incubated for 30 mins and measured after 90 mins by fluorescent polarization assay.
What is called IC50 is the midpoint of a concentration-inhibition curve. On to `O=C(N1CCC(O)(Cn2cnc3cc(F)c(F)cc3c2=O)C2(CCCC2)C1)N1CCNC[C@H]1c1ccccc1` (stereo partly drawn), for which the IC50 is < 500 nM.

As to `O=C(N1CCC(O)(Cn2cnc3ccc(F)cc3c2=O)C2(CCCC2)C1)N1CCNC[C@H]1c1ccccc1` (stereo partly drawn), the IC50 was < 500 nM.

On to `C[C@H](CC1CCCCC1)C(=O)N1CCC(O)(Cn2cc(C(=O)N(C)C)ncc2=O)C2(CCCC2)C1` (stereo partly drawn), for which the IC50 is < 500 nM.

For `C[C@H](CC1CCCCC1)C(=O)N1CCC(O)(Cn2cc([S+](C)[O-])c(-c3ccccc3)cc2=O)C2(CCCC2)C1` (stereo partly drawn), the IC50 is < 500 nM.

On to `O=C(N1CCC(O)(Cn2cnc3c(cnn3Cc3ccccc3)c2=O)C2(CCCC2)C1)N1CCNC[C@H]1c1ccccc1` (stereo partly drawn), for which the IC50 was < 500 nM.

Consider `C[C@H](CC1CCCCC1)C(=O)N1CCC(O)(Cn2cc([S+](C)[O-])c(Cl)cc2=O)C2(CCCC2)C1` (stereo partly drawn), for which the IC50 was < 500 nM.

For the compound `C[C@H](CC1CCCCC1)C(=O)N1CCC(O)(Cn2cc(N=S(C)(C)=O)c(-c3ccccc3)cc2=O)C2(CCCC2)C1` (stereo partly drawn), the IC50 was < 500 nM.

For `C[C@H](CC(F)(F)F)C(=O)N1CCC(O)(Cn2cc(N=S(C)(C)=O)c(-c3ccccc3)cc2=O)C2(CCCC2)C1` (stereo partly drawn), the IC50 is < 500 nM.

Turning to `CN(C)C(=O)c1cn(CC2(O)CCN(C(=O)N(C)CC3CCCCC3)CC23CCCC3)c(=O)cc1-c1ccccc1` (stereo not drawn), the IC50 was < 500 nM.

On to `CCn1ncc2c(=O)n(CC3(O)CCN(C(=O)[C@H](C)CC4CCCCC4)CC34CCCC4)cnc21` (stereo partly drawn), for which the IC50 was < 500 nM.

In the case of `CC(=O)N1CCN(CC2(O)CCN(C(=O)[C@H](C)CC3CCCCC3)CC23CCCC3)C(=O)C1` (stereo partly drawn), the IC50 is < 500 nM.

For the compound `C[C@H](CC1CCCCC1)C(=O)N1CCC(O)(Cn2cnc3ccc(F)cc3c2=O)C2(CCCC2)C1` (stereo partly drawn), the IC50 was < 500 nM.

As for `C[S+]([O-])c1cn(CC2(O)CCN(C(=O)N3CCNC[C@H]3c3ccccc3)CC23CCCC3)c(=O)cc1-c1ccccc1` (stereo partly drawn), the IC50 is < 500 nM.

Take `O=C(N1CC[C@@](O)(Cn2ccc3ncncc3c2=O)C2(CCCC2)C1)N1CCNC[C@H]1c1ccccc1`: the concentration for half-maximal inhibition (IC50) is < 500 nM.

Take `CN(C)C(=O)c1cn(CC2(O)CCN(C(=O)NCc3ccccc3)CC23CCCC3)c(=O)cc1-c1ccccc1` (stereo not drawn): the IC50 was < 500 nM.

With `C[C@H](CC1CCCCC1)C(=O)N1CCC(O)(Cn2cc(C(=O)N3CCNCC3)ncc2=O)C2(CCCC2)C1` (stereo partly drawn), the IC50 is < 500 nM.

`C[C@H](CC1CCCCC1)C(=O)N1CCC(O)(Cn2cnc3cc(F)c(Cl)cc3c2=O)C2(CCCC2)C1` (stereo partly drawn): the IC50 is < 500 nM.

Take `CSc1ncc2c(=O)n(CC3(O)CCN(C(=O)[C@H](C)CC4CCCCC4)CC34CCCC4)cnc2n1` (stereo partly drawn): the IC50 was < 500 nM.

With `O=C(N1CCC(O)(Cn2cnc3ccc(F)cc3c2=O)C2(CCCC2)C1)N1CCOC[C@H]1c1ccccc1` (stereo partly drawn), the IC50 is < 500 nM.

Turning to `CSc1cn(CC2(O)CCN(C(=O)[C@H](C)CC3CCCCC3)CC23CCCC3)c(=O)cc1Cl` (stereo partly drawn), the IC50 is < 500 nM.

As for `C[C@H](CC1CCCCC1)C(=O)N1CCC(O)(Cn2cnc3cc(F)c(F)cc3c2=O)C2(CCCC2)C1` (stereo partly drawn), the IC50 is < 500 nM.

For the compound `C[C@H](CC1CCCCC1)C(=O)N1CCC(O)(Cn2cnc3c(cnn3-c3ccccc3)c2=O)C2(CCCC2)C1` (stereo partly drawn), the IC50 was < 500 nM.

Turning to `C[C@H](CC1CCCCC1)C(=O)N1CCC(O)(CN2CCN(c3ccccc3)CC2=O)C2(CCCC2)C1` (stereo partly drawn), the IC50 is < 500 nM.

As to `C[C@H](CC1CCCCC1)C(=O)N1CCC(O)(Cn2cc(S(C)(=N)=O)c(Cl)cc2=O)C2(CCCC2)C1` (stereo partly drawn), the IC50 is < 500 nM.

In the case of `O=C1CN(c2ccccc2)CCN1CC1(O)CCN(C(=O)NCc2ccccc2)CC12CCCC2` (stereo not drawn), the IC50 was < 500 nM.

In the case of `C[C@H](CC1CCCCC1)C(=O)N1CCC(O)(Cn2cc(S(C)(=N)=O)c(-c3ccccc3)cc2=O)C2(CCCC2)C1` (stereo partly drawn), the IC50 was < 500 nM.

With `O=C(N1CCC(O)(Cn2cnc3cc(F)c(F)cc3c2=O)C2(CCCC2)C1)N1CCOC[C@H]1c1ccccc1` (stereo partly drawn), the IC50 was < 500 nM.

As for `C[C@H](CC1CCCCC1)C(=O)N1CCC(O)(Cn2cc(S(C)(=O)=O)c(-c3ccccc3)cc2=O)C2(CCCC2)C1` (stereo partly drawn), the IC50 was < 500 nM.

Regarding `C[C@H](CC1CCCCC1)C(=O)N1CCC(O)(Cn2cc(S(C)(=O)=O)c(Cl)cc2=O)C2(CCCC2)C1` (stereo partly drawn), the IC50 was < 500 nM.

`Cn1ncc2c(=O)n(CC3(O)CCN(C(=O)N4CCNC[C@H]4c4ccccc4)CC34CCCC4)cnc21` (stereo partly drawn): the IC50 was < 500 nM.

Turning to `CSc1cn(CC2(O)CCN(C(=O)[C@H](C)CC3CCCCC3)CC23CCCC3)c(=O)cc1-c1ccccc1` (stereo partly drawn), the IC50 is < 500 nM.

Turning to `C[C@H](CC1CCCCC1)C(=O)N1CCC(O)(CN2CCN(C(=O)OC(C)(C)C)CC2=O)C2(CCCC2)C1` (stereo partly drawn), the IC50 was < 500 nM.

With `C[C@H](CC1CCCCC1)C(=O)N1CCC(O)(Cn2cc(Cl)ncc2=O)C2(CCCC2)C1` (stereo partly drawn), the IC50 was < 500 nM.

Consider `COC(=O)c1cn(CC2(O)CCN(C(=O)[C@H](C)CC3CCCCC3)CC23CCCC3)c(=O)cn1` (stereo partly drawn), for which the IC50 is < 500 nM.

For `CN(C)C(=O)C1CN(C[C@]2(O)CCN(C(=O)[C@H](CO)CC3CCCCC3)CC2(C)C)C(=O)CC1c1ccccc1` (stereo partly drawn), the IC50 was < 500 nM.

In the case of `C[C@H](CC1CCCCC1)C(=O)N1CCC(O)(Cn2cnc3ccc(Cl)cc3c2=O)C2(CCCC2)C1` (stereo partly drawn), the IC50 was < 500 nM.

Regarding `C[C@H](CC(F)(F)F)C(=O)N1CCC(O)(CN2CCN(c3ccccn3)CC2=O)C2(CCCC2)C1` (stereo partly drawn), the IC50 is < 500 nM.

As for `O=C(N1CCC(O)(Cn2ccc3ccncc3c2=O)C2(CCCC2)C1)N1CCNC[C@H]1c1ccccc1` (stereo partly drawn), the IC50 was < 500 nM.

`COc1ccc2c(=O)n(CC3(O)CCN(C(=O)[C@H](C)CC4CCCCC4)CC34CCCC4)ccc2c1` (stereo partly drawn): the IC50 was ≤ 5000 nM.

Take `CSc1ncc2c(=O)n(C[C@]3(O)CCN(C(=O)N4CCNC[C@H]4c4ccccc4)CC34CCCC4)ccc2n1`: the IC50 was < 500 nM.

On to `CN(C)C(=O)c1cn(CC2(O)CCN(C(=O)N3CCC(C(F)(F)F)C3)CC23CCCC3)c(=O)cc1-c1ccccc1` (stereo not drawn), for which the IC50 is < 500 nM.

Regarding `CSc1ncc2c(=O)n(CC3(O)CCN(C(=O)[C@H](C)CC4CCCCC4)CC34CCCC4)n(C)c2n1` (stereo partly drawn), the IC50 was < 500 nM.

For `CSc1cn(CC2(O)CCN(C(=O)N3CCNC[C@H]3c3ccccc3)CC23CCCC3)c(=O)cc1-c1ccccc1` (stereo partly drawn), the IC50 is < 500 nM.

As to `C[C@H](CC1CCCCC1)C(=O)N1CCC(O)(Cn2cc(Br)ncc2=O)C2(CCCC2)C1` (stereo partly drawn), the IC50 is < 500 nM.

`C[C@H](CC1CCCCC1)C(=O)N1CCC(O)(CN2CCOCC2=O)C2(CCCC2)C1` (stereo partly drawn): the IC50 was < 500 nM.

For `Cc1cn(CC2(O)CCN(C(=O)N3CCNC[C@H]3c3ccccc3)CC23CCCC3)c(=O)cn1` (stereo partly drawn), the IC50 was < 500 nM.

In the case of `CSc1ncc2c(=O)n(CC3(O)CCN(C(=O)[C@H](C)CC(F)(F)F)CC34CCCC4)ccc2n1` (stereo partly drawn), the IC50 is < 500 nM.

As to `CSc1ncc2c(=O)n(CC3(O)CCN(C(=O)[C@H](C)CC4CCCCC4)CC34CCCC4)ccc2n1` (stereo partly drawn), the IC50 was < 500 nM.

For the compound `C[C@H](CC(F)(F)F)C(=O)N1CCC(O)(CN2CCN(c3ccccc3)CC2=O)C2(CCCC2)C1` (stereo partly drawn), the IC50 was < 500 nM.

Consider `O=C(N1CCC(O)(Cn2cnc3c(cnn3-c3ccccc3)c2=O)C2(CCCC2)C1)N1CCNC[C@H]1c1ccccc1` (stereo partly drawn), for which the IC50 was < 500 nM.

As to `C[C@H](CC1CCCCC1)C(=O)N1CCC(O)(Cn2ccc3ccncc3c2=O)C2(CCCC2)C1` (stereo partly drawn), the half-maximal inhibitory concentration (IC50) was < 500 nM.

As for `O=C(N1CCC(O)(Cn2cnc3c(cnn3C3CC3)c2=O)C2(CCCC2)C1)N1CCNC[C@H]1c1ccccc1` (stereo partly drawn), the IC50 is < 500 nM.

With `CN(C)C(=O)c1cn(CC2(O)CCN(C(=O)N(C)Cc3ccccc3)CC23CCCC3)c(=O)cc1-c1ccccc1` (stereo not drawn), the IC50 is < 500 nM.
